Consider 16 compounds from patent US20250154138A1, “Small Molecule IL-17A Modulators” (BeiGene, Ltd., priority 2022, published 2025).

Assay [1] has as its target human IL-17A / human IL-17RA (Homo sapiens (Human), UniProt Q16552). Briefly: Human IL-17A biochemical assay (HTRF, blocking of IL-17A binding to IL-17RA). The conditions noted are these: 0.4 nM IL-17A, 0.3 nM IL-17RA, max compound concentration 10 uM. Summed up:
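HTRF competition: 0.4 nM recombinant human IL-17A pre-incubated 3 h at room temperature with compound (top 10 uM, 2.7-fold, 10 points) in HEPES pH 7.5 buffer, then 0.3 nM IL-17RA added for 1 h, then anti-6His-Tb/anti-human IgG-XL665 detection for 1 h.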

Assay [2] has as its system IL-17-induced GROα secretion from HT-29 cells. Briefly: GROα release assay in human colorectal adenocarcinoma epithelial cell (HT-29, ELISA). It counts as cell-based. Particulars: Homo sapiens, HT-29, 48 h, 10 ng/mL IL-17A, highest concentration 10 μM, read-out: Cellular assay HT29 cell/CXCL1 IC50. How it is done:
The purpose of the assay is to test the ability of a compound to neutralize IL17A proteins. IL17 can stimulate human epithelial cells to secrete GROα. The ability of one compound of the invention to neutralize IL-17-induced GROα secretion from the human colorectal adenocarcinoma epithelia cell line HT-29 is tested in this assay.
HT-29 cells (human colorectal adenocarcinoma epithelia cell, ATCC) were stimulated with IL-17A (Novoprotein, #C774) in final concentration of 10 ng/mL. The resultant GROα response was measured using an ELISA kit from Invitrogen (#88-52122). HT-29 cells were cultured in complete medium (McCoy's 5A medium+10% FBS) and maintained in a tissue culture flask using standard techniques. On day 1, detached the cell by using TrypLE (Gibco, #12605036) and used the complete medium to neutralize. The cells were centrifuged at 11,00 rmp for 4 minutes. Re-suspended the cell pellet in complete medium and seeded 50,000 HT-29 cells into the 96-well assay plate (Corning, 3599) at 135 μL complete medium per well. The cells were incubated for overnight, at 37° C./5% CO2 to adherent the plate. On day 2, prepared a 4-fold serial dilution of the tested compound in DMSO. The highest concentration of the compound was 10 μM. Transferred 2 μL of the serial diluted compound from the serial dilution plate into the reagent plate which was contained 198 μL complete medium with 100 ng/mL IL-17A per well. The compounds were incubated with the IL-17A for 15 minutes. 15 μL mixtures from reagent plate were transferred into the cell assay plate. Incubated the plate at 37° C./5% CO2 for 48 hours. After the incubation, on day 4, GROα level were measured with GROα ELISA as the manufacturer's instructions. 50 μL supernatant was collected form the assay plate to ELISA plate. ELISA plate was read at 450 nm on a microplate reader and compared to a standard calibration curve.
Data were processed using GraphPad Prism. GROα concentration was calculated from the standard curve. IC50 was determined using the equation log concentration (inhibitor) against response and fitted to four parameters.
(In general: An ELISA detects its analyte on a solid surface through an enzyme-linked reagent.)

human IL-17A / human IL-17RA, sequence (Q16552 24-155): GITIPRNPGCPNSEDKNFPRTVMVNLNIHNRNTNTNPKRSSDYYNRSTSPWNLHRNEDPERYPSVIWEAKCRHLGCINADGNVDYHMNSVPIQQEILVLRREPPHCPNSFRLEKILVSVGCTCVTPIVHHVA

In the case of `COc1ccc(CNC(=O)C2(N3C[C@@H](C(C)C)NC3=O)Cc3ccc(NC(=O)[C@@H](NC(=O)c4ccnn4C)C4CCCCC4)cc3C2)cc1` (stereo partly drawn) [Example 150, N-((1S)-1-cyclohexyl-2-((2-((R)-4-isopropyl-2-oxoimidazolidin-1-yl)-2-((4-methoxybenzyl)carbamoyl)-2,3-dihydro-1H-inden-5-yl)amino)-2-oxoethyl)-1-methyl-1H-pyrazole-5-carboxamide], the results for the IC50 in assay [1] and in assay [2] were 20 nM and 46.5 nM, respectively.
The matching figures for `CNC(=O)C1(N2C[C@@H](C(C)C)NC2=O)Cc2ccc(NC(=O)[C@@H](NC(=O)c3ccnn3C(C)C)C3CCCCC3)cc2C1` (stereo partly drawn) [Example 59, N-((1S)-1-cyclohexyl-2-((2-((R)-4-isopropyl-2-oxoimidazolidin-1-yl)-2-(methylcarbamoyl)-2,3-dihydro-1H-inden-5-yl)amino)-2-oxoethyl)-1-isopropyl-1H-pyrazole-5-carboxamide]: 93 nM and 34.5 nM.
With `CCC1CCC(C(NC(=O)c2ccnn2C)C(=O)Nc2ccc3c(c2)CC(C(=O)NC)(N2C[C@@H](C(C)C)NC2=O)C3)CC1` (stereo partly drawn) [Example 101, N-(1-(4-ethylcyclohexyl)-2-((2-((R)-4-isopropyl-2-oxoimidazolidin-1-yl)-2-(methylcarbamoyl)-2,3-dihydro-1H-inden-5-yl)amino)-2-oxoethyl)-1-methyl-1H-pyrazole-5-carboxamide], the IC50 in assay [1] worked out at 7.5 nM; in assay [2] it was 45.2 nM.
For `CNC(=O)C1(N2C[C@@H](Cc3ccccc3)NC2=O)Cc2ccc(NC(=O)[C@@H](NC(=O)c3ccnn3C)C3CCCCC3)cc2C1` (stereo partly drawn) [Example 37, N-((1S)-2-((2-((R)-4-benzyl-2-oxoimidazolidin-1-yl)-2-(methylcarbamoyl)-2,3-dihydro-1H-inden-5-yl)amino)-1-cyclohexyl-2-oxoethyl)-1-methyl-1H-pyrazole-5-carboxamide], in that order: 112 nM and 1480 nM.
The matching figures for `CNC(=O)C1(N2CC(C(C)C)NC2=O)Cc2ccc(NC(=O)[C@@H](NC(=O)c3ccnn3C)C3CCCCC3)cc2C1` (stereo partly drawn) [Example 38, N-((1S)-1-cyclohexyl-2-((2-(4-isopropyl-2-oxoimidazolidin-1-yl)-2-(methylcarbamoyl)-2,3-dihydro-1H-inden-5-yl)amino)-2-oxoethyl)-1-methyl-1H-pyrazole-5-carboxamide]: 46 nM and 156 nM.
For `CC(C)n1nccc1C(=O)N[C@H](C(=O)Nc1ccc2c(c1)CC(c1ncc(-c3ccccc3)[nH]1)(N1CC3(CC3)CNC1=O)C2)C(C1CC1)C1CC1` (stereo partly drawn) [Example 206, N-((2S)-1,1-dicyclopropyl-3-oxo-3-((2-(6-oxo-5,7-diazaspiro[2.5]octan-5-yl)-2-(5-phenyl-1H-imidazol-2-yl)-2,3-dihydro-1H-inden-5-yl)amino)propan-2-yl)-1-isopropyl-1H-pyrazole-5-carboxamide], in that order: 270 nM and 32.5 nM.
Take `CNC(=O)C1(N2C[C@@H](C(C)C)NC2=O)Cc2ccc(NC(=O)C(NC(=O)c3ccnn3C)C3CCc4ccccc43)cc2C1` (stereo partly drawn) [Example 97, N-(1-(2,3-dihydro-1H-inden-1-yl)-2-((2-((R)-4-isopropyl-2-oxoimidazolidin-1-yl)-2-(methylcarbamoyl)-2,3-dihydro-1H-inden-5-yl)amino)-2-oxoethyl)-1-methyl-1H-pyrazole-5-carboxamide]: the figures for the IC50 in assay [1] and in assay [2] were 535 nM and 1860 nM, respectively.
The matching figures for `CCc1ccccc1NC(=O)C1(N2C[C@@H](C(C)C)NC2=O)Cc2ccc(NC(=O)[C@@H](NC(=O)c3nonc3C)C(C3CC3)C3CC3)cc2C1` (stereo partly drawn) [Example 289, N-((2S)-1,1-dicyclopropyl-3-((2-((2-ethylphenyl)carbamoyl)-2-((R)-4-isopropyl-2-oxoimidazolidin-1-yl)-2,3-dihydro-1H-inden-5-yl)amino)-3-oxopropan-2-yl)-4-methyl-1,2,5-oxadiazole-3-carboxamide]: 24.5 nM and 81.4 nM.
On to `CNC(=O)C1(N2CC(C3CC3)CNC2=O)Cc2ccc(NC(=O)[C@@H](NC(=O)c3ccnn3C)C3CCCCC3)cc2C1` (stereo partly drawn) [Example 94, N-((1S)-1-cyclohexyl-2-((2-(5-cyclopropyl-2-oxotetrahydropyrimidin-1(2H)-yl)-2-(methylcarbamoyl)-2,3-dihydro-1H-inden-5-yl)amino)-2-oxoethyl)-1-methyl-1H-pyrazole-5-carboxamide], for which the values for the IC50 in assay [1] and in assay [2] were 40 nM and 118 nM, respectively.
With `Cc1nonc1C(=O)N[C@H](C(=O)Nc1ccc2c(c1)CC(C(=O)Nc1cccc(F)c1)(N1CC3(CC3)CNC1=O)C2)C(C1CC1)C1CC1` (stereo partly drawn) [Example 216, N-((2S)-1,1-dicyclopropyl-3-((2-((3-fluorophenyl)carbamoyl)-2-(6-oxo-5,7-diazaspiro[2.5]octan-5-yl)-2,3-dihydro-1H-inden-5-yl)amino)-3-oxopropan-2-yl)-4-methyl-1,2,5-oxadiazole-3-carboxamide], the IC50 in assay [1] is 23.3 nM; in assay [2], 58.9 nM.
For `Cc1nonc1C(=O)N[C@H](C(=O)Nc1ccc2c(c1)CC(C(=O)O)(N1CC3(CC3)CNC1=O)C2)C1CCC(F)(F)CC1` (stereo partly drawn) [Example 188, 5-((S)-2-(4,4-difluorocyclohexyl)-2-(4-methyl-1,2,5-oxadiazole-3-carboxamido)acetamido)-2-(6-oxo-5,7-diazaspiro[2.5]octan-5-yl)-2,3-dihydro-1H-indene-2-carboxylic acid], in that order: 44.9 nM and 450 nM.
With `Cc1ccc(F)cc1NC(=O)C1(N2CC3(CC3)CNC2=O)Cc2ccc(NC(=O)[C@@H](NC(=O)c3nonc3C)C3CCC(F)(F)CC3)cc2C1` (stereo partly drawn) [Example 219, N-((1S)-1-(4,4-difluorocyclohexyl)-2-((2-((5-fluoro-2-methylphenyl)carbamoyl)-2-(6-oxo-5,7-diazaspiro[2.5]octan-5-yl)-2,3-dihydro-1H-inden-5-yl)amino)-2-oxoethyl)-4-methyl-1,2,5-oxadiazole-3-carboxamide], the IC50 was determined as 107 nM in assay [1] and 297 nM in assay [2].
For `CC[C@@H]1CN(C2(C(=O)NC)Cc3ccc(NC(=O)[C@@H](NC(=O)c4ccnn4C)C4CCCCC4)cc3C2)C(=O)N1` (stereo partly drawn) [Example 19, N-((1S)-1-cyclohexyl-2-((2-((R)-4-ethyl-2-oxoimidazolidin-1-yl)-2-(methylcarbamoyl)-2,3-dihydro-1H-inden-5-yl)amino)-2-oxoethyl)-1-methyl-1H-pyrazole-5-carboxamide], in that order: 60 nM and 262 nM.
The matching figures for `Cc1nonc1C(=O)N[C@H](C(=O)Nc1ccc2c(c1)CC(C(=O)NC1(c3cc(F)ccc3F)CC1)(N1CC3(CC3)CNC1=O)C2)C1CCC(F)(F)CC1` (stereo partly drawn) [Example 233, N-((1S)-1-(4,4-difluorocyclohexyl)-2-((2-((1-(2,5-difluorophenyl)cyclopropyl)carbamoyl)-2-(6-oxo-5,7-diazaspiro[2.5]octan-5-yl)-2,3-dihydro-1H-inden-5-yl)amino)-2-oxoethyl)-4-methyl-1,2,5-oxadiazole-3-carboxamide]: 77.8 nM and 90.1 nM.
On to `CCn1nccc1C(=O)N[C@H](C(=O)Nc1ccc2c(c1)CC(C(=O)NC)(N1CC3(CC3)CNC1=O)C2)C1CCCCC1` (stereo partly drawn) [Example 154, N-((1S)-1-cyclohexyl-2-((2-(methylcarbamoyl)-2-(6-oxo-5,7-diazaspiro[2.5]octan-5-yl)-2,3-dihydro-1H-inden-5-yl)amino)-2-oxoethyl)-1-ethyl-1H-pyrazole-5-carboxamide], for which the IC50 in assay [1] came out at 28 nM; in assay [2], 71.4 nM.
With `CNC(=O)C1(N2C[C@@H](C(C)C)NC2=O)Cc2ccc(NC(=O)[C@@H](NC(=O)c3cccc(Oc4c(C)n[nH]c4C)c3)C3CCCCC3)cc2C1` (stereo partly drawn) [Example 149, 5-((S)-2-cyclohexyl-2-(3-((3,5-dimethyl-1H-pyrazol-4-yl)oxy)benzamido)acetamido)-2-((R)-4-isopropyl-2-oxoimidazolidin-1-yl)-N-methyl-2,3-dihydro-1H-indene-2-carboxamide], the IC50 turned out to be 92 nM in assay [1] and 44.3 nM in assay [2].
